These compounds were tested against α5β3γ2 GABAA R (Homo sapiens, UniProt P18507+P31644) (assay: Binding activity on GABAA R: inhibition of [3H]Ro15-1788 binding, α5 containing receptor). Conditions: not given.
Experimental: Tissue culture and Membrane Preparation: The binding was performed on Ltk cells stably expressing GABAA R: […], α2β3γ2, α3β3γ2 and α5β3γ2 (provided by Merck Co., NJ, USA). Cells were seeded in 100 mm culture plates in DMEM/F12 medium containing 10% serum and antibiotics in 5% CO2 and allowed to grow for 1-2 days. GABAAR expression was then induced by dexamethasone as follows: 0.5 μM for 1 day for α5 containing and 2 μM for 3 days for α1, α2 and α3 containing GABAARs. After induction, cells were collected by scraping into Dulbecco's Phosphate buffered saline (DPBS, pH 7.4, Invitrogen, Carlsbad, CA, USA) and centrifuged at 150×g for 10 min. The pellet was washed twice by re-suspension and centrifugation. The cell pellets from at least 5 different preps were combined, suspended in the binding assay buffer (50 mM KH2PO4; 1 mM EDTA; 0.2 M KCl, pH 7.4) and membranes prepared by sonication (3-5 times, 30 sec) using Branson Sonifier 150 (G. Heinmann, Germany). Protein content was determined using BCA assay (Bio-Rad Labs, Reinach, Switzerland) with Bovine Serum Albumin (Sigma Aldrich, St. Louis, MO, USA) as the standard. Aliquots were prepared and stored at −20° C. for further use in binding assays.
Ligand Binding: Saturation binding curves were obtained by incubating membranes with increasing concentrations (0.01-8 nM) of [^3H]Rol5-1788 (Flumazepil, 75-85 Ci/mmol, PerkinElmer, MA, USA), with nonspecific binding measured in the presence of 10 μM diazepam.
All binding assays were performed for 1 h at 4° C. in assay buffer. The total assay volume was 0.5 ml containing 0.2 mg/ml protein for α5 and 0.4 mg/ml for α1, α2, and α3 containing GABAAR membranes. Incubations were terminated by filtration through GF/B filters using a 24-Cell Harvestor (Brandel, Gaithersburg, MD, USA) followed by 3 washes with ice-cold assay buffer. Filters were transferred to scintillation vials, 5 ml scintillation liquid added, vortex-mixed and kept in dark. Next day, radioactivity was obtained using a scintillation counter (Beckman Coulter, Brea, CA, USA). All assays were performed in triplicate.
Data Analyses: Saturation and inhibition curves were obtained using GraphPad Prism software (GraphPad Software, Inc., CA, USA).

α5β3γ2 GABAA R, sequence (P31644 32-462): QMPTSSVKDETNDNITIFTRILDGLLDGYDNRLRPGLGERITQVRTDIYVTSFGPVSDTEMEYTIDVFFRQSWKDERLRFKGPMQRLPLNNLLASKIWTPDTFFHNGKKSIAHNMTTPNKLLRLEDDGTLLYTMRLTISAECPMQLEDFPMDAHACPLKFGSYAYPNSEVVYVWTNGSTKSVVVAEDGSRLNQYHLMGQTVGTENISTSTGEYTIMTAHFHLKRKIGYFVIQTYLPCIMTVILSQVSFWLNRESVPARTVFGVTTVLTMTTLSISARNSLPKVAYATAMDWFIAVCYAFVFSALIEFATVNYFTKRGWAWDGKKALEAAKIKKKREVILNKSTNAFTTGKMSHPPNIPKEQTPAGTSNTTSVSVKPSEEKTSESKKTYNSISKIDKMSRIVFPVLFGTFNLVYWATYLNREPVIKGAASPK
α5β3γ2 GABAA R, sequence (P28472 26-473 partner): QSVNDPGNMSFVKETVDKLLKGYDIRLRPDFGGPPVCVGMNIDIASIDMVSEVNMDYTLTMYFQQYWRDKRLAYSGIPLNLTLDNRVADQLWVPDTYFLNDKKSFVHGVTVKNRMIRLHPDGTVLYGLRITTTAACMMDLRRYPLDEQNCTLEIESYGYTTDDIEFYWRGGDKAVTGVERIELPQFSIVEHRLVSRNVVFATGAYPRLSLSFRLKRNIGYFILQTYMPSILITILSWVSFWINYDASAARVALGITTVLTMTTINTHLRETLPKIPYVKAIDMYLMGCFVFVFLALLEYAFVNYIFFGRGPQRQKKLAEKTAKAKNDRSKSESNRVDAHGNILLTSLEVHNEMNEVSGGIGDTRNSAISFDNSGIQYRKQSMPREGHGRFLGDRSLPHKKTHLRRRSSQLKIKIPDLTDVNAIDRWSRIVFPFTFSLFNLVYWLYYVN
α5β3γ2 GABAA R, sequence (P18507 40-475): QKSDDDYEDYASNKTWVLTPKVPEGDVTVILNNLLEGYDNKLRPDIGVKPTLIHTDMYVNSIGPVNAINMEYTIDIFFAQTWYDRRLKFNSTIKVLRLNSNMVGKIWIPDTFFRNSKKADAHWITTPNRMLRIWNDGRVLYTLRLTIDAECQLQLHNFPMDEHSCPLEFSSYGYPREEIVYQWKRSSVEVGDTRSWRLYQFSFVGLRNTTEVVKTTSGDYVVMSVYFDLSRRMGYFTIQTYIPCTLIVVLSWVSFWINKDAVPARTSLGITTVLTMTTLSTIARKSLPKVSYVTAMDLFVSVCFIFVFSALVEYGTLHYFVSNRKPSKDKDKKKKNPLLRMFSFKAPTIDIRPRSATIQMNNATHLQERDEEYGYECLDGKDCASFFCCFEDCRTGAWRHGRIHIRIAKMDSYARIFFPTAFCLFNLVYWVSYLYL

SMILES	Ki [nM]
COc1ccc2c(c1)-c1nn(C)cc1Cc1c(-c3nc(CN4CCOCC4)no3)ncn1-2 [Compound 328]	< 100
COC1(c2nc(-c3ncn4c3Cc3cn(CC5CCCO5)nc3-c3cc(Cl)ccc3-4)no2)CC1 (centres unmarked) [Compound 322]	< 100
COc1ccc2c(c1)-c1nn(CC3CCOC3)cc1Cc1c(-c3nc(C(F)(F)F)no3)ncn1-2 (centres unmarked) [Compound 265]	< 100
Clc1ccc2c(c1)-c1[nH]ncc1Cc1c(-c3nc(C4CCC4)no3)ncn1-2 [Compound 107]	< 100
COCC(C)(C)c1nc(-c2ncn3c2Cc2cn(C)nc2-c2cc(OC)ccc2-3)no1 [Compound 377]	< 100
COCCOCc1coc(-c2ncn3c2Cc2cn(C)nc2-c2cc(OC)ccc2-3)n1 [Compound 272]	< 100
CCOC(C)(C)c1nc(-c2ncn3c2Cc2cn(C)nc2-c2cc(OC)ccc2-3)no1 [Compound 341]	< 100
COc1ccc2c(c1)-c1nn(C)cc1Cc1c(-c3noc(Cn4cccn4)n3)ncn1-2 [Compound 361]	< 100
COCc1noc(-c2ncn3c2Cc2cn(C)nc2-c2cc(Cl)ccc2-3)n1 [Compound 235]	< 100
COc1ccc2c(c1)-c1[nH]ncc1Cc1c(C3=N[C@@H](c4ccccc4)CO3)ncn1-2 [Compound 15]	< 100
COc1ccc2c(c1)-c1nn(C)cc1Cc1c(-c3nc(CN4CCCC4=O)co3)ncn1-2 [Compound 379]	< 100
CN(C)Cc1noc(-c2ncn3c2Cc2cn(C)nc2-c2cc(Cl)ccc2-3)n1 [Compound 240]	< 100
COc1ccc2c(c1)-c1c(cnn1C)Cc1c(-c3noc(C4(OC)CC4)n3)ncn1-2 [Compound 204]	< 100
COc1ccc2c(c1)-c1nn(CCOC(F)(F)F)cc1Cc1c(-c3noc(C4CCOCC4)n3)ncn1-2 [Compound 327]	< 100
COc1ccc2c(c1)-c1[nH]ncc1Cc1c(-c3noc(C(C)C)n3)ncn1-2 [Compound 54]	< 100
COc1ccc2c(c1)-c1[nH]ncc1Cc1c(-c3cnn(-c4ccccc4)c3)ncn1-2 [Compound 70]	100 to 1000
Cn1cc2c(n1)-c1cc(Cl)ccc1-n1cnc(-c3noc(CCN4CCCC4)n3)c1C2 [Compound 385]	< 100
COc1ccc2c(c1)-c1nn(C)cc1Cc1c(-c3nc(C(C)(C)OC)no3)ncn1-2 [Compound 335]	< 100
CC(C)c1noc(-c2ncn3c2Cc2cn(C4CCOC4)nc2-c2cc(Cl)ccc2-3)n1 (centres unmarked) [Compound 199]	< 100
COc1ccc2c(c1)-c1nn(CCOC(F)(F)F)cc1Cc1c(-c3noc(C4(OC)CC4)n3)ncn1-2 [Compound 330]	< 100
Cn1cc2c(n1)-c1cc(Cl)ccc1-n1cnc(-c3nc(CN4CCCC4=O)co3)c1C2 [Compound 364]	< 100

Same assay, conditions: ranges of the column heads; [3H]Ro15-1788, Ltk cell membranes

SMILES	Ki [nM]
CC(C)c1noc(-c2ncn3c2Cc2cnoc2-c2cc(Cl)ccc2-3)n1 [Compound 59]	> 1000
Cn1cc2c(n1)-c1cc(Cl)ccc1-n1cnc(-c3noc(CCN4CCCC4=O)n3)c1C2 [Compound 383]	< 100
COc1ccc2c(c1)-c1[nH]ncc1Cc1c(-c3noc(C(C)(C)C)n3)ncn1-2 [Compound 89]	< 100
COc1ccc2c(c1)-c1[nH]ncc1Cc1c(-c3ccnn3C)ncn1-2 [Compound 78]	> 1000
CC#Cc1ncn2c1Cc1cn[nH]c1-c1cc(OC)ccc1-2 [Compound 83]	< 100
COc1ccc2c(c1)-c1nn(C)cc1Cc1c(-c3noc(C4(O)CC4)n3)ncn1-2 [Compound 363]	< 100
COCCc1nc(-c2ncn3c2Cc2cn(C)nc2-c2cc(OC)ccc2-3)no1 [Compound 342]	< 100
CCC(C)(OC)c1nc(-c2ncn3c2Cc2cn(C)nc2-c2cc(OC)ccc2-3)no1 (centres unmarked) [Compound 353]	< 100
COc1ccc2c(c1)-c1oncc1Cc1c(-c3nc(CC(C)C)no3)ncn1-2 [Compound 67]	> 1000
C[C@H]1COC(c2ncn3c2Cc2cnn(Cc4ccccc4)c2-c2cc(Cl)ccc2-3)=N1 [Compound 13]	> 1000
COc1ccc2c(c1)-c1c(cnn1C)Cc1c(-c3nc(C)no3)ncn1-2 [Compound 18]	100 to 1000

From patent US20240132513A1, “BENZAZEPINE DERIVATIVES, COMPOSITIONS, AND METHODS FOR TREATING COGNITIVE IMPAIRMENT” (AGENEBIO, INC., priority 2022, published 2024)
